Test results taken from the supplement of paper PMC13207355.
Counter-ions that a name gives are not always drawn.

Tests used:
Conditions in all cases: exposure time: 72 h
E31 [1] = patient-derived glioblastoma stem cells of proneural subtype; test: surviving fraction (nuclei count normalised to DMSO); higher = more cells surviving (less toxic)
E57 [2] = patient-derived glioblastoma stem cells of mesenchymal subtype; test: as above
E34 [3] = patient-derived glioblastoma stem cells of proneural subtype; test: as above
E21 [4] = patient-derived glioblastoma stem cells of mesenchymal subtype; test: as above
E28 [5] = patient-derived glioblastoma stem cells of classical subtype; test: as above
E13 [6] = patient-derived glioblastoma stem cells of classical subtype; test: as above
FT3469 [7] = normal neural stem cell line; test: as above
E31 [8] = test: phenotypic distance (Euclidean, principal components) from DMSO controls (arbitrary units); higher = stronger morphological change
E57 [9] = test: as above
E34 [10] = test: as above
E21 [11] = test: as above
E28 [12] = test: as above
E13 [13] = test: as above
FT3469 [14] = test: as above
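For phenotypic distance (Euclidean, principal components) from DMSO controls in this document: cell Painting imaging in 384-well plates, CellProfiler features reduced to at least 20 principal components, Euclidean distance versus same-plate DMSO vehicle wells (0.1% v/v), median over six images per well.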
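For surviving fraction (nuclei count normalised to DMSO) in this document: nuclei counted by high-content imaging of Hoechst-stained cells in laminin-coated 384-well plates, relative to 0.1% DMSO vehicle wells, with staurosporine as cell-death control.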

CN[C@@H]1[C@@H](O)[C@@H](O[C@@H]2[C@@H](O)[C@H](O[C@H]3OC(CN)=CC[C@H]3N)[C@@H](N)C[C@H]2N)OC[C@]1(C)O [Sisomicin sulfate]
Conditions	phenotypic distance	surviving fraction
E13 [6], 4.1 nM	–	1.01
E13 [6], 12.3 nM	–	0.994
E13 [6], 37 nM	–	0.923
E13 [6], 111.1 nM	–	0.949
E13 [6], 333.3 nM	–	0.983
E13 [6], 1000 nM	–	1.1
E13 [6], 3000 nM	–	0.959
E13 [13], 4.1 nM	0.369	–
E13 [13], 12.3 nM	0.462	–
E13 [13], 37 nM	0.472	–
E13 [13], 111.1 nM	0.486	–
E13 [13], 333.3 nM	0.393	–
E13 [13], 1000 nM	0.501	–
E13 [13], 3000 nM	0.645	–
E21 [4], 4.1 nM	–	0.929
E21 [4], 12.3 nM	–	1.06
E21 [4], 37 nM	–	0.919
E21 [4], 111.1 nM	–	0.966
E21 [4], 333.3 nM	–	1.03
E21 [4], 1000 nM	–	0.992
E21 [4], 3000 nM	–	0.864
E21 [11], 4.1 nM	0.673	–
E21 [11], 12.3 nM	0.75	–
E21 [11], 37 nM	0.611	–
E21 [11], 111.1 nM	0.334	–
E21 [11], 333.3 nM	0.705	–
E21 [11], 1000 nM	0.424	–
E21 [11], 3000 nM	1.26	–
E28 [5], 4.1 nM	–	0.849
E28 [5], 12.3 nM	–	0.982
E28 [5], 37 nM	–	0.892
E28 [5], 111.1 nM	–	0.985
E28 [5], 333.3 nM	–	0.937
E28 [5], 1000 nM	–	0.984
E28 [5], 3000 nM	–	0.902
E28 [12], 4.1 nM	0.802	–
E28 [12], 12.3 nM	0.276	–
E28 [12], 37 nM	0.807	–
E28 [12], 111.1 nM	0.454	–
E28 [12], 333.3 nM	0.891	–
E28 [12], 1000 nM	0.259	–
E28 [12], 3000 nM	0.736	–
E31 [1], 4.1 nM	–	0.953
E31 [1], 12.3 nM	–	0.893
E31 [1], 37 nM	–	0.996
E31 [1], 111.1 nM	–	0.985
E31 [1], 333.3 nM	–	0.92
E31 [1], 1000 nM	–	0.979
E31 [1], 3000 nM	–	0.914
E31 [8], 4.1 nM	0.521	–
E31 [8], 12.3 nM	0.711	–
E31 [8], 37 nM	0.705	–
E31 [8], 111.1 nM	0.391	–
E31 [8], 333.3 nM	0.642	–
E31 [8], 1000 nM	0.692	–
E31 [8], 3000 nM	0.63	–
E34 [3], 4.1 nM	–	0.838
E34 [3], 12.3 nM	–	0.957
E34 [3], 37 nM	–	0.811
E34 [3], 111.1 nM	–	0.957
E34 [3], 333.3 nM	–	0.867
E34 [3], 1000 nM	–	0.88
E34 [3], 3000 nM	–	0.901
E34 [10], 4.1 nM	1.06	–
E34 [10], 12.3 nM	0.852	–
E34 [10], 37 nM	0.946	–
E34 [10], 111.1 nM	0.273	–
E34 [10], 333.3 nM	2.48	–
E34 [10], 1000 nM	3.23	–
E34 [10], 3000 nM	0.712	–
E57 [2], 4.1 nM	–	0.973
E57 [2], 12.3 nM	–	0.964
E57 [2], 37 nM	–	0.884
E57 [2], 111.1 nM	–	0.95
E57 [2], 333.3 nM	–	0.927
E57 [2], 1000 nM	–	0.919
E57 [2], 3000 nM	–	0.966
E57 [9], 4.1 nM	0.637	–
E57 [9], 12.3 nM	0.658	–
E57 [9], 37 nM	0.794	–
E57 [9], 111.1 nM	0.322	–
E57 [9], 333.3 nM	0.595	–
E57 [9], 1000 nM	0.802	–
E57 [9], 3000 nM	0.686	–
FT3469 [7], 4.1 nM	–	0.936
FT3469 [7], 12.3 nM	–	1.08
FT3469 [7], 37 nM	–	1.04
FT3469 [7], 111.1 nM	–	0.924
FT3469 [7], 333.3 nM	–	1.08
FT3469 [7], 1000 nM	–	1.08
FT3469 [7], 3000 nM	–	1.02
FT3469 [14], 4.1 nM	0.895	–
FT3469 [14], 12.3 nM	0.713	–
FT3469 [14], 37 nM	0.549	–
FT3469 [14], 111.1 nM	0.66	–
FT3469 [14], 333.3 nM	0.495	–
FT3469 [14], 1000 nM	0.637	–
FT3469 [14], 3000 nM	0.793	–
